Reference: ChEMBL document CHEMBL1926600, “Design, synthesis and biological evaluation of cycloalkyl arylpyrimidines (CAPYs) as HIV-1 NNRTIs” (Bioorg Med Chem, 2011)

Key:
[1] = test system: Human immunodeficiency virus 1; assay: Antiviral activity against wild type HIV1 3B infected in human MT4 cells assessed as reduction in virus-induced cytopathogenicity after 5 days by MTT assay; assay type: functional, organism-based; conditions: Human immunodeficiency virus 1, 3B, MT4, 120 h
[2] = test system: Human immunodeficiency virus 2; assay: Antiviral activity against HIV2 ROD infected in human MT4 cells assessed as reduction in virus-induced cytopathogenicity after 5 days by MTT assay; assay type: functional, organism-based; conditions: Human immunodeficiency virus 2, ISOLATE ROD, MT4, 120 h
[3] = Cytotoxicity against human MT4 cells measured by MTT assay; assay type: cell-based
[4] = Selectivity index, ratio of CC50 for human MT4 cells to EC50 for HIV1 3B; assay type: toxicity, cell-based; conditions: read-out: Ratio CC50/EC50
[5] = test system: Human immunodeficiency virus 1; assay: Antiviral activity against HIV1 harboring reverse transcriptase K103N/Y181C mutant infected in human MT4 cells assessed as reduction in virus-induced cytopathogenicity after 5 days by MTT assay; assay type: functional, organism-based; conditions: Human immunodeficiency virus 1, MT4, 120 h

Row | Structure (SMILES) | EC50 [1] [µM] | EC50 [2] [µM] | CC50 [3] [µM] | selectivity ratio [4] | EC50 [5] [µM]
1 | Cc1cc(OC2CCCC2)nc(Nc2ccc(C#N)cc2)n1 | > 1.05 | > 1.05 | 1.05 | < 1 | –
2 | N#Cc1ccc(Nc2nccc(OC3CCCCC3)n2)cc1 | 1.16 | > 322 | 322 | 276 | > 322
3 | Cc1cnc(Nc2ccc(C#N)cc2)nc1SC1CCCCC1 | 0.43 | > 33.4 | 33.4 | 79 | > 33.4
4 | O=C1Nc2ccc(Cl)cc2[C@@](C#CC2CC2)(C(F)(F)F)O1 [EFAVIRENZ] | 0.0054 | – | > 6.34 | > 1150 | 0.51
5 | N#Cc1ccc(Nc2nccc(NC3CCCC3)n2)cc1 | 1.58 | > 9.13 | 9.13 | 6 | > 9.13
6 | Cc1cnc(Nc2ccc(C#N)cc2)nc1NC1CCCCC1 | > 1.3 | > 1.3 | 1.3 | < 1 | –
7 | Cc1cc(NC2CC2)nc(Nc2ccc(C#N)cc2)n1 | > 0.088 | > 0.088 | 0.088 | < 1 | –
8 | Cc1cnc(Nc2ccc(C#N)cc2)nc1NC1CCCC1 | > 0.17 | > 0.17 | 0.17 | < 1 | –
9 | Cc1cc(NC2CCCCC2)nc(Nc2ccc(C#N)cc2)n1 | > 0.34 | > 0.34 | 0.34 | < 1 | –
10 | N#Cc1ccc(Nc2nccc(SC3CCCCC3)n2)cc1 | 0.055 | > 403 | > 403 | > 7290 | > 403
11 | Cc1cn([C@H]2C[C@H](N=[N+]=[N-])[C@@H](CO)O2)c(=O)[nH]c1=O [ZIDOVUDINE] | 0.0075 | 0.0075 | ≥ 46.4 | ≥ 6360 | 0.013
12 | N#Cc1ccc(Nc2nccc(NC3CC3)n2)cc1 | > 1.19 | > 1.19 | 1.19 | < 1 | –
13 | N#Cc1ccc(Nc2nccc(NC3CCCCC3)n2)cc1 | 0.96 | > 7.33 | 7.33 | 8 | > 7.33
14 | Cc1ccnc2c1NC(=O)c1cccnc1N2C1CC1 [NEVIRAPINE] | – | > 15 | > 15 | – | 3.49
15 | Cc1cc(OC2CCCCC2)nc(Nc2ccc(C#N)cc2)n1 | > 0.32 | > 0.32 | 0.32 | < 1 | –
16 | Cc1cc(SC2CCCCC2)nc(Nc2ccc(C#N)cc2)n1 | 0.096 | > 192 | ≥ 192 | ≥ 2010 | > 192
17 | N#Cc1ccc(Nc2nccc(OC3CCCC3)n2)cc1 | 6.71 | 31.3 | ≥ 340 | ≥ 51 | > 340
18 | Cc1cc(NC2CCCC2)nc(Nc2ccc(C#N)cc2)n1 | > 0.31 | > 0.31 | 0.31 | < 1 | –
19 | CC(C)Nc1cccnc1N1CCN(C(=O)c2cc3cc(NS(C)(=O)=O)ccc3[nH]2)CC1 [DELAVIRDINE] | 0.016 | – | > 4.39 | > 274 | > 4.39
20 | Cc1cnc(Nc2ccc(C#N)cc2)nc1OC1CCCC1 | > 9.99 | > 9.99 | 9.99 | < 1 | –
21 | Cc1cnc(Nc2ccc(C#N)cc2)nc1OC1CCCCC1 | 6.49 | > 31.2 | 31.2 | 5 | > 31.2
22 | Cc1cc(C#N)cc(C)c1Oc1nc(Nc2ccc(C#N)cc2)nc(N)c1Br [ETRAVIRINE] | 0.0022 | > 27.8 | 27.8 | 12900 | 0.034
23 | Cc1cnc(Nc2ccc(C#N)cc2)nc1NC1CC1 | > 0.36 | > 0.36 | 0.36 | < 1 | –
